For two molecules, cell viability and glucose level uptaken results are on record in patent US9345731B2, “Herbal extract as sensitivity enhancer toward insulin and antidiabetes” (PT. DEXA MEDICA, priority 2008, dated 2016).

For one data set, the system named is 3T3 Swiss Albino cells. The data set is described as follows: In vitro toxicity test (MTT) on cell viability. It is filed as cell-based. The following applies: 0.02 μM, 48 hours.
Data set [1] deals with insulin resistance adipocytes 3T3 Swiss Albino cells. Briefly: Glucose uptake by insulin resistance adipocytes (anthrone reagent, spectrophotometer). Conditions: 5 μg/ml extract combination or 0.02 μM pioglitazone, 48 hours, from the initial 5% (untreated). The class given is cell-based. The procedure:
FIG. 12 is the graphic of glucose measurement results obtained from insulin resistance adipocytes 3T3 Swiss Albino after administration of 5 μg/ml Lythraceae and Lauraceae family plant combination extracts or 0.02 μM pioglitazone and/or 25 nM insulin during 48 hours incubation, then incubation with 5 mg/ml glucose for 0, 2, 4, 6 hours. 3T3 Swiss Albino cells were differentiated until 3T3 Swiss Albino pre-adipocytes and 3T3 Swiss Albino adipocytes cells were obtained. Each cell type received excessive glucose for over 2 weeks. Incubated cells received such excessive glucose were used as insulin resistance model. After that, those four type cells obtained were tested for its ability to uptake glucose in media. The remaining glucose level was analyzed so that the glucose level uptaken by each 3T3 Swiss Albino cell type could be determined. To measure glucose level that was uptaken by cell, we used an experiment method which is initialized by culturing 3T3 Swiss Albino cells in 6 cm-diameter plates. […] Glucose concentration that was uptaken by cells was measured by subtracting the initial glucose concentration with the remaining glucose in media at the end of incubation time. […] The reaction result was quantified by spectrophotometer.

For the molecule `CCC1=C(C)CN(C(=O)NCCc2ccc(S(=O)(=O)NC(=O)N[C@H]3CC[C@H](C)CC3)cc2)C1=O` [glimepiride], the cell viability entry in the data set with 3T3 Swiss Albino cells was “did not show any effect”. Regarding `CCc1ccc(CCOc2ccc(CC3SC(=O)NC3=O)cc2)nc1` (stereo not drawn) [pioglitazone], the cell viability entry in the data set on 3T3 Swiss Albino cells was “did not show any effect”. Also, the glucose level uptaken in data set [1] is 20%.
